Reference: ChEMBL document CHEMBL4837239, “Identification of Thieno[3,2-d]pyrimidine Derivatives as Dual Inhibitors of Focal Adhesion Kinase and FMS-like Tyrosine Kinase 3” (J Med Chem, 2021)
Activity calls are given as the source filed them. No cut-off for these calls is given here.

Legend:
HCT-116 [1] = assay: Antiproliferative activity against human HCT-116 cells assessed as growth inhibition measured after 72 hrs by CellTiter-Glo assay; format: functional; details: Homo sapiens, HCT-116
[2] = Inhibition of FYK Y379 mutant phosphorylation in human MDA-MB-231 cells by in-cell western blot assay; format: cell-based
[3] = Inhibition of FLT3 D835Y (unknown origin); design: species or system Homo sapiens
[4] = target: Non-receptor tyrosine-protein kinase TYK2 (Homo sapiens, UniProt P29597); assay: Inhibition of TYK2 (unknown origin)
Focal adhesion kinase 1 [5] = target: T1, Focal adhesion kinase 1 (Homo sapiens, UniProt Q05397); assay: Inhibition of FAK (unknown origin)
[6] = target: Casein kinase II subunit alpha (Homo sapiens, UniProt P68400); assay: Inhibition of CK2alpha1 (unknown origin)
[7] = target: Proto-oncogene tyrosine-protein kinase receptor Ret (Homo sapiens, UniProt P07949); assay: Inhibition of RET (unknown origin)
Homo sapiens = species: Homo sapiens; assay: Inhibition of FLT3 D835Y mutant (unknown origin) at 0.1 uM
[8] = target: Tyrosine-protein kinase Lck (Homo sapiens, UniProt P06239); assay: Inhibition of Lck (unknown origin) at 0.1 uM
[9] = target: Proto-oncogene tyrosine-protein kinase Src (Homo sapiens, UniProt P12931); assay: Inhibition of Src (unknown origin) at 0.1 uM
Colon carcinoma cell = assay: Antiproliferative activity against human colon cancer cells assessed as growth inhibition measured after 72 hrs by MTT assay; format: functional, cell-based
Melanoma cell line = assay: Antiproliferative activity against human skin cancer cells assessed as growth inhibition measured after 72 hrs by MTT assay; format: functional, cell-based
Prostatic carcinoma cell = assay: Antiproliferative activity against human prostate cancer cells assessed as growth inhibition measured after 72 hrs by MTT assay; format: functional, cell-based
NCI-H23 = assay: Antiproliferative activity against human NCI-H23 cells assessed as growth inhibition measured after 72 hrs by MTT assay; format: functional, cell-based
BaF3 [10] = assay: Antiproliferative activity against mouse Ba/F3 cells harbouring FLT3 D835Y mutant assessed as growth inhibition measured after 72 hrs by CellTiter-Glo assay; format: functional; details: Mus musculus, BaF3
Focal adhesion kinase 1 [11] = target: T1, Focal adhesion kinase 1; assay: Inhibition of FAK autophosphorylation at Y397 in human MDA-MB-231 cells at 5 uM incubated for 24 hrs by Western blot analysis; format: cell-based
Target sequence in this assay (Q05397 2-1052 limits assumed): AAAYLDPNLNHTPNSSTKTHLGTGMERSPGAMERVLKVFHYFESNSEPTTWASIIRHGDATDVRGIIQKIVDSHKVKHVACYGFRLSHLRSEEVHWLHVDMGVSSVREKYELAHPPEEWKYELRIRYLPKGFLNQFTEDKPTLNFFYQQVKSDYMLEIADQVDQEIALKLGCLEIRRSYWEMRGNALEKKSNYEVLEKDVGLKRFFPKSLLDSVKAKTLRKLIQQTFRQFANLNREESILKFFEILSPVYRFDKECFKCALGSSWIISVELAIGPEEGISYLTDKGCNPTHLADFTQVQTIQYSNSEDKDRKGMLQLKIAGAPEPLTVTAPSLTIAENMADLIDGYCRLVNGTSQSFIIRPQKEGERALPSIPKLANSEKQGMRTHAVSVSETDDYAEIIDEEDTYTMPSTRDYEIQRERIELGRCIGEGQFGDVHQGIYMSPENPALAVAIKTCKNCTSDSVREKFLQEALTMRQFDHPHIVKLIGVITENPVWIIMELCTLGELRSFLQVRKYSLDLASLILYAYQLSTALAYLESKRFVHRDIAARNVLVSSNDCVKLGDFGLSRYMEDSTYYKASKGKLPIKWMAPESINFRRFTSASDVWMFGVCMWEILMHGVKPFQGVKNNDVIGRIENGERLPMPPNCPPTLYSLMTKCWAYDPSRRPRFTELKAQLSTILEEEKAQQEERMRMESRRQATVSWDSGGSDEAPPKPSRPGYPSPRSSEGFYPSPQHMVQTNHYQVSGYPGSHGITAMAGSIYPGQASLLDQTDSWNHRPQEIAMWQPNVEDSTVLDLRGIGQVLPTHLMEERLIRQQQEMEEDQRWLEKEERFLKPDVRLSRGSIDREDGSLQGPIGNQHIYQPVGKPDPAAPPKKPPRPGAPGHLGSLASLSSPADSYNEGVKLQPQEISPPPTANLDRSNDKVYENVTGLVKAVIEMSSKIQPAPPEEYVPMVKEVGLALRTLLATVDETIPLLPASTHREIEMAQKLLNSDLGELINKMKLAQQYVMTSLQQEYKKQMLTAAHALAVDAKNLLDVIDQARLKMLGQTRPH

Focal adhesion kinase 1 [12] = target: T1, Focal adhesion kinase 1; assay: Inhibition of FAK autophosphorylation at Y925 in human MDA-MB-231 cells at 5 uM incubated for 24 hrs by Western blot analysis; format: cell-based
Target sequence in this assay (Q05397 2-1052 limits assumed): as above

Focal adhesion kinase 1 [13] = target: T1, Focal adhesion kinase 1; assay: Inhibition of FAK in human HCT-116 cells assessed as inhibition of Pyk2 phosphorylation at 0.5 to 5 uM incubated for 24 hrs by Western blot analysis; format: cell-based; details: dose 0.5-5 µM
Target sequence in this assay (Q05397 2-1052 limits assumed): as above

[14] = target: Mitogen-activated protein kinase; ERK1/ERK2 (Homo sapiens) (UniProt P27361+P28482); assay: Inhibition of ERK1/2 autophosphorylation in human HCT-116 cells at 0.5 to 5 uM incubated for 24 hrs by Western blot analysis; format: cell-based; details: dose 0.5-5 µM
HCT-116 [15] = assay: Induction of apoptosis in human HCT-116 cells assessed as cleaved PARP at 0.1 to 10 uM incubated for 24 hrs by Western blot analysis; format: functional, cell-based; details: dose 0.1-10 µM
MDA-MB-231 [16] = assay: Growth inhibition of anchorage-Independent human MDA-MB-231 cells assessed as decrease in number of colonies incubated for 72 hrs by MTT assay; format: functional, cell-based; details: dose 1-10 µM
MDA-MB-231 [17] = assay: Antitumor activity against human MDA-MB-231 cells xenografted in Balb/c mouse assessed as decrease in ki67 at 40 to 70 mg/kg, po once daily measured for 16 days by Immunohistochemical analysis; format: functional, organism-based; details: dose 40-70 mg/kg, time 16.0 day
MDA-MB-231 [18] = assay: Antiinvasive activity in human MDA-MB-231 cells assessed as suppression of invasion measured after 12 hrs by trans well experiment; format: functional; details: dose 0.5-1 µM, at 0.5 to 1 µM
MDA-MB-231 [19] = assay: Antimetastatic activity against human MDA-MB-231 cells expressing firefly luciferase xenografted NSG orthotopic mouse model assessed as reduction in luminescence intensity at chest region at 70 mg/kg, po once daily measured for 2 weeks; format: functional, organism-based
MDA-MB-231 [20] = assay: Antimetastatic activity against human MDA-MB-231 cells expressing firefly luciferase xenografted NSG orthotopic mouse model assessed as reduction in luminescence intensity at lung at 70 mg/kg, po once daily measured for 2 weeks; format: functional, organism-based
MDA-MB-231 [21] = assay: Antimetastatic activity against human MDA-MB-231 cells expressing firefly luciferase xenografted NSG orthotopic mouse model assessed as suppression of lymphogenous metastasis at 70 mg/kg, po once daily measured for 2 weeks; format: functional, organism-based
[22] = test system: T2, Receptor-type tyrosine-protein kinase FLT3 (Homo sapiens), P36888 [D835Y]; assay: Inhibition of FLT3-D835Y mutant (unknown origin) expressed in mouse BaF3 cells assessed as decrease in STAT5 phosphorylation at 1 nM by Western blot analysis; format: cell-based
T2 sequence (whole entry): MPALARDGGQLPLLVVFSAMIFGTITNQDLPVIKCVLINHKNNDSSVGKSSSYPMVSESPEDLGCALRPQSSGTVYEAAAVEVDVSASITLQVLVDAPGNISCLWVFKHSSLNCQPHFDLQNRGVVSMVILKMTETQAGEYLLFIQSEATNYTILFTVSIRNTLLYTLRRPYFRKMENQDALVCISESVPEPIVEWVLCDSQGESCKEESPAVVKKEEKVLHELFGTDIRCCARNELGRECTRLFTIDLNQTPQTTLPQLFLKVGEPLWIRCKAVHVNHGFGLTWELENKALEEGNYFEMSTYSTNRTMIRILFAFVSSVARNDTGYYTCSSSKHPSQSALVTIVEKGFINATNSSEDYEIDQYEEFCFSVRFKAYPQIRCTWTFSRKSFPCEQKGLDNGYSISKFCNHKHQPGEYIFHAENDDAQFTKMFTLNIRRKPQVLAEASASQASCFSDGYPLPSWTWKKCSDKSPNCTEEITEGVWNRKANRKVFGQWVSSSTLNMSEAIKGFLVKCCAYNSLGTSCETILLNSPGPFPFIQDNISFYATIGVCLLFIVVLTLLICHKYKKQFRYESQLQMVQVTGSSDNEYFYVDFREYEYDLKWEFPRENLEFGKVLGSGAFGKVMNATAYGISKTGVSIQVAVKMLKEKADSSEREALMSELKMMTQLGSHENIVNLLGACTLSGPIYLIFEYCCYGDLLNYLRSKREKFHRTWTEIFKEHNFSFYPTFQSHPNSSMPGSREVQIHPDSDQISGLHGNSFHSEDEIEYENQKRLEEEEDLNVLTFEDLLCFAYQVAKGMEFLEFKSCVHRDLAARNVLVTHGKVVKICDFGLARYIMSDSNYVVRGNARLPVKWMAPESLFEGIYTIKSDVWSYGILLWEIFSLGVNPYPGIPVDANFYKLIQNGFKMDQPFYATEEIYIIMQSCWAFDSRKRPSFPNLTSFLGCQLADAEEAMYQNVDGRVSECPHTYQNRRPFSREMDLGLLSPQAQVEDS

BaF3 [23] = assay: Inhibition of FLT3-ITD/[…] mutant (unknown origin) expressed in mouse Ba/F3 cells assessed as decrease in autophosphorylation at 10 nM by Western blot analysis; format: cell-based; details: Homo sapiens

Chain of Casein kinase II subunit alpha (P68400 whole entry): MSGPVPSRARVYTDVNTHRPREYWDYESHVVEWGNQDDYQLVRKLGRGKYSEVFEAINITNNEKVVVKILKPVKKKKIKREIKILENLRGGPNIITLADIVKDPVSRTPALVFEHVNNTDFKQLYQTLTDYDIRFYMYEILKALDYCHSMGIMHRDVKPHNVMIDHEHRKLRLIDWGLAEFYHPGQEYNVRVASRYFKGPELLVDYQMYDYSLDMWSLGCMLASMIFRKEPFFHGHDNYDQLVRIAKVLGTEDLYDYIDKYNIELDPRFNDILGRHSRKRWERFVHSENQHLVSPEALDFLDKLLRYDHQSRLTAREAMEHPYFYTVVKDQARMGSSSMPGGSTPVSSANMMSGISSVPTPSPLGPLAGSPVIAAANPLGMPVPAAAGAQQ
Chain of Non-receptor tyrosine-protein kinase TYK2 (P29597 whole entry): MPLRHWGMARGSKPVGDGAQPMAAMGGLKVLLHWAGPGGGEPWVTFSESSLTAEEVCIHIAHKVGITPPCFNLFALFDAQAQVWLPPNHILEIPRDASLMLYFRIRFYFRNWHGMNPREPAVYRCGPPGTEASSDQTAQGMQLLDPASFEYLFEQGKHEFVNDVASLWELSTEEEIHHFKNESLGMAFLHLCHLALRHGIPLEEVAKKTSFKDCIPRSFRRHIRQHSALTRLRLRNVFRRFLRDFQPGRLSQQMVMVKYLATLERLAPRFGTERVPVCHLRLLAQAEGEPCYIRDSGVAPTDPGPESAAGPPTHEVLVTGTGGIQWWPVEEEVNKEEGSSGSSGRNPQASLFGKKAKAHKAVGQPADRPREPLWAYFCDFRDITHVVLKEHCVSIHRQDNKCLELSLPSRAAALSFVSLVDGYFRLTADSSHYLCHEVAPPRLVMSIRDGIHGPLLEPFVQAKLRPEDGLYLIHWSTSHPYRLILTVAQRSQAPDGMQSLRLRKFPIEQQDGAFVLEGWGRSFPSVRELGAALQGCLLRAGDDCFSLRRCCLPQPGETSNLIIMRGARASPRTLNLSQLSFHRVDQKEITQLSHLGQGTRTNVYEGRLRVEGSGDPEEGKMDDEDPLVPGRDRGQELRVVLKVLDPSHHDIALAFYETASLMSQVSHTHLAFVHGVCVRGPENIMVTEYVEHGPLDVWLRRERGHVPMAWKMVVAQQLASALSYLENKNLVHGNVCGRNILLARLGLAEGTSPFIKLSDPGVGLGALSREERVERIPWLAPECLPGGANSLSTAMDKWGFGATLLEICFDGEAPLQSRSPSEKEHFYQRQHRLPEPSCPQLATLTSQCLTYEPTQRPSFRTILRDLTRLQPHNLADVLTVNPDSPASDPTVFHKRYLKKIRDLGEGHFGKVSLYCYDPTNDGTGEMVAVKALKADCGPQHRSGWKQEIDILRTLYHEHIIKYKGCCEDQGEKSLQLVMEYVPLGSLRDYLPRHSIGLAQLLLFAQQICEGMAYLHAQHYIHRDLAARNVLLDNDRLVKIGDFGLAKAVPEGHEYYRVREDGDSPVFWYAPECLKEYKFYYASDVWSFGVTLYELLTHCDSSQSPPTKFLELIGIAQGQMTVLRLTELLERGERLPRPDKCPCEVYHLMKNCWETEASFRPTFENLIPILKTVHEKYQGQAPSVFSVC
Chain of Tyrosine-protein kinase Lck (P06239 2-509 limits assumed): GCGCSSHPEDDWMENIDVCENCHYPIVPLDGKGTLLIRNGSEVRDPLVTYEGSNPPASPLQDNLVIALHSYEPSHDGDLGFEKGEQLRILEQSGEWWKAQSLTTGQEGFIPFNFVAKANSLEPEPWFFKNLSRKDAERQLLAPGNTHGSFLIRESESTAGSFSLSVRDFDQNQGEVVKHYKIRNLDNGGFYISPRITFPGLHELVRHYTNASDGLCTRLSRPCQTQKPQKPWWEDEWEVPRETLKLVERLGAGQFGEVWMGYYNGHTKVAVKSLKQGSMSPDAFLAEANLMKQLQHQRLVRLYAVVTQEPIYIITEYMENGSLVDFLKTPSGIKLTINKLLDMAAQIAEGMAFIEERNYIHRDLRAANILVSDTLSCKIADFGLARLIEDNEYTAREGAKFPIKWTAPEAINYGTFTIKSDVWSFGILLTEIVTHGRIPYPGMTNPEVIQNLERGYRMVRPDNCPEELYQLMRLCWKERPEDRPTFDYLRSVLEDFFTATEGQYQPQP
Chain of Mitogen-activated protein kinase; ERK1/ERK2 (Homo sapiens) (P27361 whole entry, looked up): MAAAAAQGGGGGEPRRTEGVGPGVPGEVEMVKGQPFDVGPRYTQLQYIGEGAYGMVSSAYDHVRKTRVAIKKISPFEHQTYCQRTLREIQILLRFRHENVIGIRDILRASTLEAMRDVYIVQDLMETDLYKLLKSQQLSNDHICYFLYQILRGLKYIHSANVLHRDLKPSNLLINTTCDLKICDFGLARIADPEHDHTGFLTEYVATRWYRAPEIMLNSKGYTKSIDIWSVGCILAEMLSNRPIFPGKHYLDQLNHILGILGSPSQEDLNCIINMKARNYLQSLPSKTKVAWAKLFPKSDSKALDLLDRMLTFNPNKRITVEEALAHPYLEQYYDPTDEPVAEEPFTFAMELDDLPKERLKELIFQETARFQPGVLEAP
Chain of Mitogen-activated protein kinase; ERK1/ERK2 (Homo sapiens) (P28482 whole entry, looked up): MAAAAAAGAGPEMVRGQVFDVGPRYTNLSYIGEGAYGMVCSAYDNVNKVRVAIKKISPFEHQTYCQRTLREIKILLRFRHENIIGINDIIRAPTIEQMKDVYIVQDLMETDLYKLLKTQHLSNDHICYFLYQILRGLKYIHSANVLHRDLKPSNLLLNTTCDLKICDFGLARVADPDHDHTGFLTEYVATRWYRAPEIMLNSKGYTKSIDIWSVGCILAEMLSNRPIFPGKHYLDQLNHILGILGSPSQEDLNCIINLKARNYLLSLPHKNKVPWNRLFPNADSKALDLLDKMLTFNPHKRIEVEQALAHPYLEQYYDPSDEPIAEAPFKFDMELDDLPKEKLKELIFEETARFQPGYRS
Chain of Proto-oncogene tyrosine-protein kinase receptor Ret (P07949 whole entry): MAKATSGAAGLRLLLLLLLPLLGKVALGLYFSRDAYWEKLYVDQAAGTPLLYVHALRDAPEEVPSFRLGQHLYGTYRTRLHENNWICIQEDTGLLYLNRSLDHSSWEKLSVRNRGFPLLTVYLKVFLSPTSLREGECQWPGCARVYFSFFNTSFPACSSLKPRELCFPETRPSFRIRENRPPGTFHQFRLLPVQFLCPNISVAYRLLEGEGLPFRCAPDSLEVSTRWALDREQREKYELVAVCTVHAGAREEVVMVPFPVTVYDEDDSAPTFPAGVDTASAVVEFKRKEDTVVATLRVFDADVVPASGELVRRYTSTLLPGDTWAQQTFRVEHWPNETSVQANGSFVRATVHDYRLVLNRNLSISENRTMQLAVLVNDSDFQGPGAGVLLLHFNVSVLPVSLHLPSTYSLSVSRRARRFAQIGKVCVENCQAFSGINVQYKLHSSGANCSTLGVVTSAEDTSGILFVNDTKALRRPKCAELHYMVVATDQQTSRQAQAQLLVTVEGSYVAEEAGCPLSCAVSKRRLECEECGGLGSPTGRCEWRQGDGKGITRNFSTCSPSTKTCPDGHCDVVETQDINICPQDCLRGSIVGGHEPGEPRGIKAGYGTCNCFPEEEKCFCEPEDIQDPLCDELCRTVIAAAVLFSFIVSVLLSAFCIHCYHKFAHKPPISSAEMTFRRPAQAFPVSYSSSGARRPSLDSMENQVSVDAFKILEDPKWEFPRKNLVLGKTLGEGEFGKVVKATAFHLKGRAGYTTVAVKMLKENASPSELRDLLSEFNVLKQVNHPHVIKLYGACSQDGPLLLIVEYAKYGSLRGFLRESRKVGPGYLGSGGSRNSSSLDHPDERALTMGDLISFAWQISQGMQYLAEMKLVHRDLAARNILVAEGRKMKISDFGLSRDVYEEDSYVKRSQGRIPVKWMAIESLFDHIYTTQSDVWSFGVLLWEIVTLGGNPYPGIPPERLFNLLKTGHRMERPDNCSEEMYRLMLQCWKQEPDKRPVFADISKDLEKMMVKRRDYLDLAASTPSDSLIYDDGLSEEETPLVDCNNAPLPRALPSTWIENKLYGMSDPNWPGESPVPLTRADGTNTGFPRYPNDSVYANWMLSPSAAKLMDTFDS

## CCN1CCN(c2ccc(Nc3ncc4scc(-c5cccc(NS(C)(=O)=O)c5)c4n3)cc2)CC1
HCT-116 [1]
  GI50: 160 nM
[2]
  IC50: 260 nM
[3]
  IC50: < 0.5 nM
[4]
  IC50: 4.3 nM
Focal adhesion kinase 1 [5]
  IC50: 9.7 nM
[6]
  IC50: 13.9 nM
[7]
  IC50: 2.9 nM
Homo sapiens
  inhibition: 98.4%
[8]
  inhibition: 93.9%
[9]
  inhibition: 93.1%
Colon carcinoma cell
  Activity: Active
Melanoma cell line
  Activity: Active
Prostatic carcinoma cell
  Activity: Active
NCI-H23
  Activity: Active
BaF3 [10]
  GI50: 0.4 nM
Focal adhesion kinase 1 [11]
  inhibition: Active
Focal adhesion kinase 1 [12]
  inhibition: Active
Focal adhesion kinase 1 [13]
  inhibition: Active
[14]
  inhibition: inactive
HCT-116 [15]
  Activity: Active
MDA-MB-231 [16]
  growth inhibition (GI): Dose-Dependent Effect
MDA-MB-231 [17]
  Activity: Active
MDA-MB-231 [18]
  inhibition (INH): 50%
MDA-MB-231 [19]
  Activity: Active
MDA-MB-231 [20]
  Activity: Active
MDA-MB-231 [21]
  Activity: Active
[22]
  inhibition: Active
BaF3 [23]
  inhibition: 100%
